Data set [1] in a line: Lipophilicity (logD) by shake-flask method. The note with it: pH = 7.4, 1-octanol/PBS. It is filed as physicochemical. As to the method: Lipophilicity (logD value) was determined via the “shake-flask” method. For both precursors AAZTA^5.SA.FAPi and DOTA.SA.FAPi logD (pH = 7.4), values were measured for the ^68Ga- and ^44Sc complexes.
Lipophilicity of [^68Ga]Ga-AAZTA^5.SA.FAPi, [^44Sc]Sc-AAZTA^5.SA.FAPi and [^68Ga]Ga-DOTA.SA.FAPi was determined using the “shake-flask” methodology. After reaction of the precursor with the respective radionuclide, the reaction solution was adjusted to pH 7.4 with NaOH. Aliquots of ~5 MBq for the ^68Ga complexes and of ~3 MBq for the ^44Sc-complexed were taken and adjusted to a total volume of 700 μL with PBS (n= 4). 700 μL 1-octanol was added, and the solution was shaken for 2 min (1500 rpm). Afterwards, each tube was centrifuged for 2 min. 400 μL of the octanol- and PBS phases were pipetted in new tubes, and aliquots of each phase (3 µL of the PBS phase and 6 μL of the octanol phase) were measured via radio-TLC. The PBS phases were adjusted to 700 µL, and 700 μL octanol was added to each tube. The procedure was repeated twice. LogD values were calculated as the logarithm of the octanol/PBS ratio.

Data set [2] in a line: Stability of radiolabelled complexes in human serum. It is filed as in vitro ADME. The conditions noted are these: human serum (HS), 37 °C. As to the method: (§1) Labeling was carried out with 100–150 MBq gallium-68 in 300 µL of 1 M ammonium acetate (AmAc) buffer pH 5.5 and with 30–40 MBq scandium-44 in 1 mL of 0.25 M AmAc pH 4.0, and aliquots were taken at 1, 3, 5, 10, and 15 min. For lutetium-177, activity of 30–40 MBq in 300 µL of 1 M AmAc pH 5.5 was used, and aliquots were taken at 1, 3, 5, 15, 30, and 60 min. Stability was tested in 500 µL of human serum, phosphate-buffered saline, ethanol, and saline (0.9% isotonic NaCl solution) using ~5 MBq of tracer solution with >95% radiochemical purity. […] HS (human male AB plasma, USA origin) and PBS were purchased from Sigma Aldrich, and 0.9% saline from B. Braun Melsungen AG (Melsungen, Germany).

Data set [3] can be described thus: Stability of radiolabelled complexes in PBS, saline (NaCl) and ethanol. It is filed as physicochemical. The note with it: PBS and NaCl, 37 °C. As to the method: as §1
Details of data set [4]: method as in PMID 32332144. The note with it: reported in the literature; cited from earlier work.

Where only a bound is given, the exact number is not on record here.

As a reminder, the logD is the decadic logarithm of the distribution of all forms, ionised or not, between an organic phase and buffer at a given pH.

Take `N#C[C@@H]1CC(F)(F)CN1C(=O)CNC(=O)c1ccnc2ccc(OCCCCNc3c(NCCNC(=O)CCCCC4(N(CC(=O)[O-])CC(=O)[O-])CN(CC(=O)[O-])CCN(CC(=O)[O-])C4)c(=O)c3=O)cc12.[44Sc+3]` [[^44Sc]Sc-AAZTA^5.SA.FAPi]: the LogD7.4 in data set [1] is on record as −2.50 ± 0.11. The “intact conjugate (stability)” value in data set [2] (1 h) was greater than 99%; in data set [2] (8 h) it was greater than 97%; in data set [3] (1 h), greater than 99%; in data set [3] (8 h) it was greater than 99%.

Consider `N#C[C@@H]1CC(F)(F)CN1C(=O)CNC(=O)c1ccnc2ccc(OCCCN3CCN(C(=O)CN4CCN(CC(=O)O)CCN(CC(=O)O)CCN(CC(=O)O)CC4)CC3)cc12` (68Ga complex, metal not drawn) [FAPI-04], for which, in data set [4], the pH-dependent lipophilicity (logD) was −2.4 ± 0.28.

The values are drawn from PMC8226449, “In Vitro Evaluation of the Squaramide-Conjugated Fibroblast Activation Protein Inhibitor-Based Agents AAZTA^5.SA.FAPi and DOTA.SA.FAPi” (Molecules, 2021).
